One data set concerns the target T1, Taq polymerase (Thermus aquaticus, UniProt P19821).
T1 construct: purchased Stratagene
Briefly: Predicted thermostability (half-life) of Taq polymerase in the presence of diols. Format: biochemical. The protocol: It is possible that this discrepancy was due to the greatly diminished thermostability of the polymerase at the cutoff concentrations. Based on thermodynamic data, Taq polymerase in the absence of template is predicted to have a half-life of about 8 seconds at 95° C. in the presence of 0.9M 1,2-butanediol and 10 seconds in the presence of 0.6M 1,5-pentanediol. These values will be increased in the presence of template, but will still be very low, especially during the initial cycles when template concentration is limited.

The subject of the next data set is 50% GC DNA. In words: Predicted cosolvent-induced Tm depression of DNA. It is filed as physicochemical. The following applies: 1.0M 1,5-pentanediol, 0.7M 1,6-hexanediol, linearity not verified. How it is done:
The compounds utilized in the first phase (testing using 1.0M 1,5-pentanediol and 0.7M 1,6-hexanediol at temperatures between 46 and 62° C.) were chosen on the basis of the following rationale. The optimal additive for a low temperature PCR reaction is one that lowers the melting temperature of DNA as much as possible while minimally compromising polymerase activity. 1,5-Pentanediol and 1,6-hexanediol are both powerful DNA melting agents. In addition, it was found in the 62° C. activity studies that the rate of activity decline with concentration of 1,5-pentanediol was roughly equivalent to that of 1,2-butanediol, despite the fact that the former is a much stronger DNA denaturant. 1.0M 1,5-pentanediol and 0.7M 1,6-hexanediol are predicted to lower the Tm of a 50% GC DNA by approximately the same amount: 19° C.

The test system of data set [1] is human myeloid leukocyte c-jun cDNA. In words: PCR amplification of c-jun with lower denaturation/extension temperatures. Format: biochemical. The following applies: for Potency: annealing 50° C. How it is done:
Amplification reactions were carried out under the following general conditions. Those skilled in the art will appreciate, however, that to the extent that the conditions (set forth in this application) required for specific experiments described in this example were inconsistent with the following general conditions, limited exceptions to the following general conditions were made The general conditions were as follows: 10 Mm Tris-HCl (Ph 8.8), 50 Mm KCl, 1.5 Mm MgCl2, 0.01% (w/v) gelatin, 0.2 Um primers, 0.06 ng/ul template, 0.2 Mm each Dntp, 0.04 U/ul Taq polymerase. The templates used were bovine brain N-WASP cDNA (1518 bp), a 996 by segment of human myeloid leukocyte c-jun cDNA, a 511 by segment of human prostate-specific membrane antigen (PSM) cDNA, and bovine brain glycolipid transfer protein (GTP) cDNA (660 bp). cDNA synthesis was carried out using the FIRST-STRAND® RT-PCR kit from Stratagene on the respective mRNAs purchased from Clontech. All amplification reactions for gene were carried out using a single master batch of cDNA. Taq polymerase and dNTPs were obtained from Stratagene. Primers were obtained from Genosys. Primer melting temperatures (Tms) were calculated using the Genosys oligo calculator program. The sequences of the primers were as follows.
Polymerase chain reactions for the N-WASP gene were conducted on a ROBOCYCLER® Gradient 40 thermal cycler from Stratagene using 100 ul solutions in 600 ul thin-walled tubes. For expediency, amplification of c-jun, PSM and GTP was carried out in a ROBOCYCLER® Gradient 96 thermal cycler from Stratagene using 50 ul solutions in 200 ul thin-walled tubes. Prior to Taq polymerase addition, a hotstart protocol was carried out that consisted of an initial cycle of 95° C. for 5 minutes (11) to ensure complete first-strand separation, followed by a cycle of 54° C. for 5 minutes. Amplifications were run for 30 cycles. Denaturation was done for 1 minute at the minimum temperatures that yielded discernable amplification: 92° C. for N-WASP and 95° C. for c-jun, PSM and GTP. Extension was done at 72° C. for periods depending on target length: 2 minutes for N-WASP, 1.5 minutes for c-jun and GTP, and 1 minute for PSM. Annealings were carried out either at fixed concentrations of additives using temperature gradients of 38-56° C. for N-WASP and 44-58° C. for the other targets, or at varying concentrations of additives using fixed temperatures of 41° C. for N-WASP, 50° C. for c-jun and PSM, and 54° C. for GTP.
Amplification products were analyzed by agarose gel electrophoresis on 0.8% agarose gels in which 20 ul reaction products were loaded with 4 ul loading buffer. […] Densitometric quantitation of amplification products was carried out using IMAGE SCANNER® and IMAGE MASTER® software from Amersham Pharmacia. […]

T1 sequence (P19821 whole entry): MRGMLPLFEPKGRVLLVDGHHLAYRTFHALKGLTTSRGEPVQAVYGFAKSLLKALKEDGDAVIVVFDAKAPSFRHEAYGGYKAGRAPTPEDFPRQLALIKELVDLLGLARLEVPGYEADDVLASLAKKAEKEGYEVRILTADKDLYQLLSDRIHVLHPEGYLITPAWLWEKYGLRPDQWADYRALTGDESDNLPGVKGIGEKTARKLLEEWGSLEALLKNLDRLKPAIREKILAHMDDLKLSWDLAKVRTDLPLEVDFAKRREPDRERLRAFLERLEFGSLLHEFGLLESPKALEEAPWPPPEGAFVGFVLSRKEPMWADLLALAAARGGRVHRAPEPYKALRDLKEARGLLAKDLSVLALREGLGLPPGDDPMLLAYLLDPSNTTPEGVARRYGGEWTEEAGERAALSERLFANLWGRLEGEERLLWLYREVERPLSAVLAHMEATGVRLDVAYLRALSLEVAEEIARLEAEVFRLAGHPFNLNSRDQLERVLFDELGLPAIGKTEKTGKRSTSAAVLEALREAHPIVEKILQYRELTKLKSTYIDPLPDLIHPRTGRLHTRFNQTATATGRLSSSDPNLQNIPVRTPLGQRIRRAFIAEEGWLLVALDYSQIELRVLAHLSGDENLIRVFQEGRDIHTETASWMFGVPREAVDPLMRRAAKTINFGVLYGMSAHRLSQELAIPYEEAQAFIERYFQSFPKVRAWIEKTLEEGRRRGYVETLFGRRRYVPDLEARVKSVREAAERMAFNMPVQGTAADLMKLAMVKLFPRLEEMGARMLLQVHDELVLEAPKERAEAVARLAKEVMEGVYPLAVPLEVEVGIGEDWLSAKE

Consider `OCCCCCO` [1,5-Pentanediol], for which, at Taq polymerase, the “half-life of Taq polymerase” value is approximately 10 s. Moreover, the “lowering of the Tm of a 50% GC DNA” value with 50% GC DNA was approximately 19 °C.
Turning to `CCC(O)CO` (stereo not drawn) [1,2-Butanediol], the Potency is listed as 0.91 in data set [1] (92/62° C. denaturation/extension, normalized: 1,5-pentanediol (95/72° C.) = 1); “High product yield” in data set [1] (92/62° C. denaturation/extension, normalized: 1,5-pentanediol (95/72° C.) = 1, listed as 1,2-butanediol); 0.00 in data set [1] (92/72° C. denaturation/extension, normalized: 1,5-pentanediol (95/72° C.) = 1). Besides, in data set [1] (92/62° C., concentration interval over which target band minus control is at least 50% of maximum volume), the Effective is given as 0.72-1.02.

The record behind these values is patent US7772383B2, “Chemical PCR: Compositions for enhancing polynucleotide amplification reactions” (The Trustees of Princeton University, priority 2002, dated 2010).
